{
  "source": "patent US8992933B2",
  "about": "“Methods for activating T cells and modulating an immune response” (New York University, priority 2011, dated 2015)",
  "molecules": {"B1": {"name": "IL-23: cytokine (R&D Systems) (protein, UniProt Q9NPF7 20-189; P29460 23-328, looked up)", "Interleukin-23 subunit alpha": "RAVPGGSSPAWTQCQQLSQKLCTLAWSAHPLVGHMDLREEGDEETTNDVPHIQCGDGCDPQGLRDNSQFCLQRIHQGLIFYEKLLGSDIFTGEPSLLPDSPVGQLHASLLGLSQLLQPEGHHWETQQIPSLSPSQPWQRLLLRFKILRSLQAFVAVAARVFAHGAATLSP", "Interleukin-12 subunit beta": "IWELKKDVYVVELDWYPDAPGEMVVLTCDTPEEDGITWTLDQSSEVLGSGKTLTIQVKEFGDAGQYTCHKGGEVLSHSLLLLHKKEDGIWSTDILKDQKEPKNKTFLRCEAKNYSGRFTCWWLTTISTDLTFSVKSSRGSSDPQGVTCGAATLSAERVRGDNKEYEYSVECQEDSACPAAEESLPIEVMVDAVHKLKYENYTSSFFIRDIIKPDPPKNLQLKPLKNSRQVEVSWEYPDTWSTPHSYFSLTFCVQVQGKSKREKKDRVFTDKTSATVICRKNASISVRAQDRYYSSSWSEWASVPCS"}},
  "type_in_all_cases": "cell-based, human",
  "key": {"[1]": {"system": "TM cells", "assay": "Cell viability under PI-3K/Akt inhibitor treatment", "conditions": "1-10 μg/mL", "description": "Cells were stained as previously described (Oswald-Richter, et al., PLoS Pathogens 2007; 3: e58). For intracellular staining, T cell cultures were stimulated for 5 hours at 37° C. with PMA and Ionomycin and Golgistop (BD Biosciences). Stimulated cells were washed with PBS and stained with Fixable Viability Dye eFluor450 (eBioscience) to gate on live cells. Cells were then fixed and permeabilized by commercially available Foxp3 intracellular staining kit (eBioscience) or cytofix/cytoperm kit (BD Biosciences) as per manufacturer's protocol. Antibodies used for surface and intracellular staining included: CD45RO-[…]3), PE Cy7 or A700; […] IL-17A (IL-17)-Pacific Blue (Clone BL168), FITC or Percp Cy5.5; […]) or APC (eBioscience); […] FOXO1 rabbit monoclonal antibody; phospho-AKT ([…])-Alexa Fluor 488; Rabbit IgG isotype control-Alexa Fluor 488 (Cell Signaling, Danvers, Mass.); and CCR6-biotin (BD Biosciences). Secondary antibodies used were: Streptavidin-APC or […]5.5 (BD Biosciences), Goat anti mouse-APC (BD Biosciences), anti rabbit-Alexa 647 (Molecular Probes). All data were acquired on LSRII instrument (BD Biosciences) using FACSDiva software. Data analyses were done using Flowjo software (Treestar Inc, Ashland, Oreg.). For phospho-Akt staining, Jurkat cells were fixed with BD Cytofix buffer (BD Biosciences) pre-warmed to 37° C. for 10 minutes. […]"}, "[2]": {"system": "resting CCR6+CD45RO+CD25- TM cells", "assay": "Cytokine expression in resting CCR6+ TM cells cultured with cytokines, no TCR stimulation (intracellular staining)", "description": "(§1) Peripheral Blood Mononuclear Cells (PBMCs) from healthy individuals (New York Blood Center, New York, N.Y.) were prepared using Ficoll-paque plus (GE Amersham, Uppsala, Sweden). Whole blood samples from rheumatoid arthritis patients were purchased from Bioreclamation (New York, N.Y.) and were processed similar to healthy donor blood. All healthy donor and patient samples were consented prior to purchase, were none-identifiable and approved by institutional human subjects board. CD4^+ T cells were isolated using Dynal CD4 Positive Isolation Kit (Invitrogen, Carlsbad, Calif.) directly from purified PBMCs and were >99% pure. CD4^+ T cells were sorted by FACS ARIA cell sorter (BD, San Jose, Calif.) into CD45RO^+ CD25^− memory T (TM) cells. TM cells were activated either by anti-CD3 and anti-CD28 (aCD3/aCD28) coated beads (1:4 beads:cells ratio) for 18-24 hours, or by Phorbol 12-myristate 13-acetate (PMA) and ionomycin for 4 hours and further FACS sorted based on CCR6 and IL-17 expression into CCR6^− IL-17^−, CCR6^+IL-17^+, or CCR6^+IL-17^− subsets (as determined by secretion assay labeling, see below). Sorted cells (>99% pure) were cultured in serum-free Xvivo-15 medium (Lonza, Wakersville, Md.) at 37° C. and 5% CO2 for 6-7 days prior to restimulation with PMA and ionomycin (see below). […] To determine the fold expansion, CCR6^+IL-17^+ or CCR6 IL-17^− subsets were labeled with CFSE (Molecular Probes, Eugene, Oreg.) or eFluor 670 (eBioscience, San Diego, Calif.), respectively, as previously described (Oswald-Richter, et al., PLoS Biol 2004; 2: E198). […] In the experiments using PI-3K signaling inhibitors, cells were treated with PI-3K specific inhibitor, LY294002 (EMD, Gibbstown, N.J.), or Akt specific inhibitor, AKTi-1/2 (EMD), for 2 days before PMA and Ionomycin restimulation.\nCells were stained as previously described (Oswald-Richter, et al., PLoS Pathogens 2007; 3: e58). For intracellular staining, T cell cultures were stimulated for 5 hours at 37° C. with PMA and Ionomycin and Golgistop (BD Biosciences). Stimulated cells were washed with PBS and stained with Fixable Viability Dye eFluor450 (eBioscience) to gate on live cells. Cells were then fixed and permeabilized by commercially available Foxp3 intracellular staining kit (eBioscience) or cytofix/cytoperm kit (BD Biosciences) as per manufacturer's protocol. Antibodies used for surface and intracellular staining included: CD45RO-FITC; CD25-PE; IFN-γ-FITC (clone 4S. B3), PE Cy7 or A700; IL-4-APC or PE; IL-17A (IL-17)-Pacific Blue (Clone BL168), FITC or Percp Cy5.5; IL-10-APC (Biolegend); IL-22-PE (R&D) or APC (eBioscience); IL-21-PE (clone 22URT1, eBioscience); FOXO1 rabbit monoclonal antibody; phospho-AKT (Ser473)-Alexa Fluor 488; Rabbit IgG isotype control-Alexa Fluor 488 (Cell Signaling, Danvers, Mass.); and CCR6-biotin (BD Biosciences). Secondary antibodies used were: Streptavidin-APC or PercpCy5.5 (BD Biosciences), Goat anti mouse-APC (BD Biosciences), anti rabbit-Alexa 647 (Molecular Probes). All data were acquired on LSRII instrument (BD Biosciences) using FACSDiva software. Data analyses were done using Flowjo software (Treestar Inc, Ashland, Oreg.). For phospho-Akt staining, Jurkat cells were fixed with BD Cytofix buffer (BD Biosciences) pre-warmed to 37° C. for 10 minutes. After spinning down, the cells were permeablilzed with ice-cold BD Phosflow Perm buffer III (BD Biosciences) on ice for 30 minutes and were stained with phospho-antibody."}, "[3]": {"system": "CCR6- TM cells", "assay": "IL-17 induction by cytokine culture of sorted, activated CCR6-IL-17- memory T cells", "conditions": "cultured with the cytokine, restimulation", "description": "(§2) Peripheral Blood Mononuclear Cells (PBMCs) from healthy individuals (New York Blood Center, New York, N.Y.) were prepared using Ficoll-paque plus (GE Amersham, Uppsala, Sweden). Whole blood samples from rheumatoid arthritis patients were purchased from Bioreclamation (New York, N.Y.) and were processed similar to healthy donor blood. All healthy donor and patient samples were consented prior to purchase, were none-identifiable and approved by institutional human subjects board. CD4^+ T cells were isolated using Dynal CD4 Positive Isolation Kit (Invitrogen, Carlsbad, Calif.) directly from purified PBMCs and were >99% pure. CD4^+ T cells were sorted by FACS ARIA cell sorter (BD, San Jose, Calif.) into CD45RO^+ CD25^− memory T (TM) cells. TM cells were activated either by anti-CD3 and anti-CD28 (aCD3/aCD28) coated beads (1:4 beads:cells ratio) for 18-24 hours, or by Phorbol 12-myristate 13-acetate (PMA) and ionomycin for 4 hours and further FACS sorted based on CCR6 and IL-17 expression into CCR6^− IL-17^−, CCR6^+IL-17^+, or CCR6^+IL-17^− subsets (as determined by secretion assay labeling, see below). Sorted cells (>99% pure) were cultured in serum-free Xvivo-15 medium (Lonza, Wakersville, Md.) at 37° C. and 5% CO2 for 6-7 days prior to restimulation with PMA and ionomycin (see below). […]"}, "[4]": {"system": "CCR6+ TM cells", "assay": "Cytokine gene expression by quantitative nuclease protection assay (qNPA)", "conditions": "IL-7 stimulation"}, "[5]": {"system": "CCR6- TM cells", "assay": "Cytokine expression in resting CCR6- TM cells cultured with IL-7", "conditions": "stimulated with IL-7", "description": "as §2"}, "[6]": {"system": "Klf2", "assay": "Klf2 mRNA by RT-qPCR in TM cells", "conditions": "stimulation with IL-7 alone", "description": "as §2, with “CD4^+ T cells were sorted by FACS ARIA cell sorter (BD, San Jose, Calif.) into CD45RO^+ CD25^− memory T (TM) cells.” left out, “below).” for “below). Sorted cells (>99% pure) were cultured in serum-free Xvivo-15 medium (Lonza, Wakersville, Md.) at 37° C. and 5% CO2 for 6-7 days prior to restimulation with PMA and ionomycin (see below).”\nPurified T cells (1×10^5) were snap frozen in liquid nitrogen for total RNA isolation. […] The extracted RNA was then reverse transcribed into cDNA and quantified using Taqman Cell to CT kit (Applied Biosystems, Carlsbad, Calif.). […] Data was acquired and analyzed on ABI 7500 sequence detection system. […]"}, "[7]": {"system": "CCR6+ IL-17- TM cells", "assay": "IL-17 induction by cytokine culture of sorted, activated CCR6+IL-17- memory T cells (intracellular staining, FACS)", "conditions": "cultured with the cytokine for 6 days; IL-23 in the absence of IL-2", "description": "as §1\nManufacturer's protocols (Miltenyi Biotec) for labeling human and mouse IL-17 secreting cells were followed. Briefly, activated T-cells were washed in cold buffer (PBS+0.5% BSA+2 mM EDTA) and labeled with IL-17 catch reagent for 5 minutes on ice. […]"}},
  "data": [
    {"molecule": "O=c1cc(N2CCOCC2)oc2c(-c3ccccc3)cccc12", "note": "[LY294002]", "values": [
      {"measurement": "cell viability", "setting": "[1]", "value": "without adversely affecting cell viability"}
    ]},
    {"molecule": "IL-4: another γc-cytokine", "values": [
      {"measurement": "IL-17/IL-22 (Th17 cytokine) expression in resting CCR6+ TM cells", "setting": "[2]; stimulation with the single cytokine", "value": "did not promote Th17 cytokine production"}
    ]},
    {"molecule": "IL-7: γc-cytokine (R&D Systems)", "values": [
      {"measurement": "IL-17 expression in CCR6- TM cells", "setting": "[3]", "value": "neither IL-7 nor IL-15 induced IL-17 expression"},
      {"measurement": "expression of IL-21", "setting": "[2]; CCR6+ or CCR6- TM cells upon stimulation with IL-7", "value": "slightly reduced"},
      {"measurement": "enhancement of IL-17 expression compared to the same cells ex vivo (day 0)", "setting": "[2]; IL-7 for 10 days", "value": "more than 3 fold"},
      {"measurement": "enhancement of IL-22 expression compared to the same cells ex vivo (day 0)", "setting": "[2]; IL-7 for 10 days", "value": "more than 3 fold"},
      {"measurement": "increase of double cytokine-producing cells (IL-22 or IFNγ co-expressed with IL-17)", "setting": "[2]; IL-7 stimulation", "value": "more than 5 fold"},
      {"measurement": "impact on IFNγ production", "setting": "[2]; resting CCR6+ or CCR6- TM cells cultured with IL-7", "value": "almost no impact"},
      {"measurement": "Ccl20 expression", "setting": "[4]", "value": "neither significantly induced"},
      {"measurement": "expression of non-Th17 related cytokines (Il2, Ifng, Tnf)", "setting": "[4]", "value": "not influenced"},
      {"measurement": "IL-17 or IL-22 expression in CCR6- TM cells", "setting": "[5]", "value": "failed to express IL-17 or IL-22"},
      {"measurement": "Klf2 expression in resting CCR6+ TM cells", "setting": "[6]", "value": "decreased"},
      {"measurement": "de novo IL-17 expression in CCR6+ IL-17- T cells", "setting": "[7]", "value": "induced similar levels of IL-17 expression"}
    ]},
    {"molecule": "IL-15: γc-cytokine (R&D Systems)", "values": [
      {"measurement": "IL-17 expression in CCR6- TM cells", "setting": "[3]", "value": "neither IL-7 nor IL-15 induced IL-17 expression"},
      {"measurement": "de novo IL-17 expression in CCR6+ IL-17- T cells", "setting": "[7]", "value": "induced similar levels of IL-17 expression"}
    ]},
    {"molecule": "B1", "values": [
      {"measurement": "synergy with IL-7 to further induce IL-17 or IL-22 expression", "setting": "[2]; IL-7 (20 ng/ml)+IL-23 (20 ng/ml) for 10 days", "value": "did not significantly synergize"},
      {"measurement": "de novo IL-17 expression in CCR6+ IL-17- T cells", "setting": "[7]", "value": "did not influence IL-17 expression"}
    ]}
  ]
}
